Source: paper PMC5760531, “Action Potential Recording and Pro-arrhythmia Risk Analysis in Human Ventricular Trabeculae” (Frontiers in Physiology, 2018)
Where “and” joins values, the source holds several entries; their conditions need not be identical. Equal values may be shown once.

Tests used:
[1] = test system: human ventricular trabeculae; test: Action potential recording and pro-arrhythmic score analysis in human ventricular trabeculae (hVT); conditions: for EAD induction: any testing concentration, 1 and 2 Hz;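 as to all read-outs here: sharp microelectrode action potential recordings at 37°C in Tyrode-perfused trabeculae, 4 cumulative concentrations each applied 31 min, values averaged over last 30 APs, vehicle 0.1% DMSO as control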
Method: Briefly, the human heart was transferred into a dissection vessel containing a cold (4°C), fresh proprietary dissection solution. The heart was maintained completely submerged in dissection solution. Ventricular trabeculae were dissected and transferred to the recording chamber.
Briefly, a single tissue was mounted into the experimental chamber filled with oxygenated Tyrode's external solution. The temperature of the solution was maintained at 37°C with flow rate at 5 mL per minute. The tissue was allowed to equilibrate for 30–60 min with stimulation (3 V, 3 ms) at a frequency of 1.0 Hz. High impedance borosilicate microelectrodes were prepared with a tip resistance of 10–20 MΩ once filled with 3 M KCl. Upon tissue impalement, the membrane potential was allowed to stabilize (typically, around −85 mV). Tissues with resting membrane potentials more positive than −75 mV were rejected. Bipolar stimulation at 1.5x threshold was applied and recordings were performed in continuous mode with sampling at 20 kHz using ADInstruments and LabChart Software.
Interruption of perfusion/oxygenation; (2). Absence of Aps following stimulation at baseline; (3). Time frame of drug exposure not respected; (4). Unstable response to stimulation at baseline; (5). Resting membrane potential (RMP) > −75 mV; 7). Maximal amplitude of AP (AMAX) <70 mV; 8). AP duration at 90% repolarization (APD90) <200 ms or >450 ms.
Experimental Procedure: Each test article was evaluated at 4 concentrations in 4 ventricular trabeculae derived from a minimum of 2 donor hearts. Testing concentrations were chosen based upon human free ETPC, aiming to cover 1–100-fold of human free ETPC. […] Briefly, following stabilization of each tissue, APs were collected and assessed for 31 min in vehicle control solution (Tyrode with 0.1% DMSO) at stimulation frequencies of 1 Hz for 25 min, 2 Hz for 3 min and then 1 Hz for 3 min. Following this vehicle control period, 4 concentrations of a test compound were applied sequentially and cumulatively. Each concentration was applied for 31 min with the same stimulation sequence as in vehicle controls.
For each frequency tested, the last 30 APs acquired at the end of the period were averaged for vehicle controls and for each test article concentration. Analysis at 1 Hz included only the last 30 APs of the initial 25-min incubation period. The following AP parameters and pro-arrhythmia variables were analyzed offline upon the completion of recordings:
• RMP (mV) • AMAX (mV) • AP duration at percent repolarization (APD20, APD30, APD50, APD60, APD90) (ms) • Short term variability analysis of AP duration (STV): Beat-to-beat variability of repolarization was quantified as STV from APD90 Poincare plots over a period of 30 sec.
Compound effects were quantified relative to the data collected during the vehicle control period (see Figure 1). […] Additionally, based on AnaBios historical data, threshold values for changes over baseline control for AP instability, APD alternans, Maximum APD dispersion and ERP (APD) were based upon an effect level of 10%. When applicable, differences were tested for statistical significance using the unpaired Student's t-test. A value of P < 0.05 was considered significant.
AP parameters and pro-arrhythmia variables were combined into a meaningful, single score to assess the pro-arrhythmic risk of a compound at each concentration tested. The pro-arrhythmic potential of compounds at 1 or 2 Hz was determined by assigning a weighted scale to each variable (Table 1).

[2] = human free (unbound) effective therapeutic plasma concentration used to calculate multiples; cited from earlier work
[3] = 1Hz, c1-c4: 0.4-, 1.3-, 13-, 43-FOLD free ETPC (2.3µM)
[4] = 2Hz, c1-c4: 0.4-, 1.3-, 13-, 43-FOLD free ETPC (2.3µM)
[5] = average raw data, 1Hz, c2-c5: 0.4-, 1.3-, 13-, 43-FOLD free ETPC (2.3µM)
[6] = average raw data, 2Hz, c2-c5: 0.4-, 1.3-, 13-, 43-FOLD free ETPC (2.3µM)
[7] = 1Hz, c1-c4: 2-FOLD, 21-FOLD, 69-OLD, 207-FOLD free ETPC (0.145µM)
[8] = 2Hz, c1-c4: 2-FOLD, 21-FOLD, 69-OLD, 207-FOLD free ETPC (0.145µM)
[9] = average raw data, 1Hz, c2-c5: 2-FOLD, 21-FOLD, 69-OLD, 207-FOLD free ETPC (0.145µM)
[10] = average raw data, 2Hz, c2-c5: 2-FOLD, 21-FOLD, 69-OLD, 207-FOLD free ETPC (0.145µM)
[11] = initial 3 testing concentrations
[12] = 1Hz, c1-c4: 25-, 75-, 250-, 2500-FOLD free ETPC (0.0004µM)
[13] = 2Hz, c1-c4: 25-, 75-, 250-, 2500-FOLD free ETPC (0.0004µM)
[14] = average raw data, 1Hz, c2-c5: 25-, 75-, 250-, 2500-FOLD free ETPC (0.0004µM)
[15] = average raw data, 2Hz, c2-c5: 25-, 75-, 250-, 2500-FOLD free ETPC (0.0004µM)

Q: What does the source list for `COc1ccccc1OCC(O)CN1CCN(CC(=O)Nc2c(C)cccc2C)CC1` (stereo not shown) [RANOLAZINE, Ranolazine]?
A: EADs incidence [1, 3]: 0%; Refractoriness Escape incidence [1, 3]: 0%; EADs incidence [1, 4]: 0%; Refractoriness Escape incidence [1, 4]: 0%; AMAX [1, 5]: 112 mV and 111 mV and 113 mV and 109 mV; APD30 [1, 5]: 146 ms and 136 ms and 126 ms and 116 ms; APD50 [1, 5]: 198 ms and 187 ms and 181 ms and 170 ms; APD90 [1, 5]: 266 ms and 257 ms and 274 ms and 294 ms; Alternans [1, 5]: 0.34 and 0.37 and 0.39; EADs [1, 5]: 0; ERP [1, 5]: 0.47 and 0.48 and 0.50 and 0.49; Max Dispersion [1, 5]: 1.65 and 1.42 and 1.45 and 1.75; Refractoriness Escape [1, 5]: 0; STV [1, 5]: 0.22 and 0.27 and 0.29 and 0.24; Triangulation [1, 5]: 121 and 148 and 178; AMAX [1, 6]: 111 mV and 105 mV; APD30 [1, 6]: 108 ms and 102 ms and 99 ms and 104 ms; APD50 [1, 6]: 151 ms and 144 ms and 143 ms; APD90 [1, 6]: 215 ms and 210 ms and 230 ms and 275 ms; EADs [1, 6]: 0; ERP [1, 6]: 0.48 and 0.49 and 0.47; Refractoriness Escape [1, 6]: 0; Triangulation [1, 6]: 107 and 108 and 131 and 172; Free ETPC [2]: 2.3 µM

Q: With `CC(CC(c1ccccc1)c1ccccc1)NC(C)(C)C` (stereo not shown) [TERODILINE, Terodiline] as the compound, how does the EADs incidence [1, 7] read?
A: 0%

Q: And the “Refractoriness Escape incidence” value [1, 7]?
A: 0%

Q: What about the EADs incidence [1, 8] of the same compound?
A: 0%

Q: What about the “Refractoriness Escape incidence” value [1, 8] of the same compound?
A: 0%

Q: And the STV ([1]; 2 Hz, first concentration)?
A: 0.9

Q: What about the STV ([1]; 2 Hz, third concentration) of the same compound?
A: 2.2

Q: What about the STV increase ([1]; 2 Hz, third versus first concentration) of the same compound?
A: 144%

Q: And the EAD induction [1]?
A: did not induce EAD

Q: What about the AMAX [1, 9] of the same compound?
A: 111 mV and 110 mV and 108 mV and 102 mV

Q: What about the APD30 [1, 9] of the same compound?
A: 151 ms and 142 ms and 126 ms and 113 ms

Q: What about the APD50 [1, 9] of the same compound?
A: 200 ms and 192 ms and 178 ms and 164 ms

Q: What about the APD90 [1, 9] of the same compound?
A: 270 ms and 268 ms and 293 ms

Q: And the “Beat Escape” value [1, 9]?
A: 1

Q: And the EADs [1, 9]?
A: 0

Q: And the ERP [1, 9]?
A: 0.44 and 0.45 and 0.48 and 0.49

Q: What about the “Refractoriness Escape” value [1, 9] of the same compound?
A: 0

Q: And the Triangulation [1, 9]?
A: 119 and 126 and 144 and 180

Q: And the AMAX [1, 10]?
A: 109 mV and 108 mV and 106 mV and 100 mV

Q: What about the APD30 [1, 10] of the same compound?
A: 115 ms and 108 ms and 100 ms and 104 ms

Q: What about the APD50 [1, 10] of the same compound?
A: 157 ms and 150 ms and 140 ms and 151 ms

Q: What about the APD90 [1, 10] of the same compound?
A: 225 ms and 223 ms and 228 ms and 276 ms

Q: And the “Beat Escape” value [1, 10]?
A: 1

Q: What about the EADs [1, 10] of the same compound?
A: 0

Q: What about the ERP [1, 10] of the same compound?
A: 0.45 and 0.47 and 0.48

Q: And the “Refractoriness Escape” value [1, 10]?
A: 0

Q: What about the Triangulation [1, 10] of the same compound?
A: 110 and 115 and 128 and 172

Q: And the “effect on amplitude of AP” value ([1]; especially at 30 μM)?
A: decreased the amplitude of AP

Q: What about the “change in APD90” value [1, 11] of the same compound?
A: less than 10%

Q: And the change in triangulation [1, 11]?
A: ≥ 20%

Q: What about the “Free ETPC” value [2] of the same compound?
A: 0.145 µM

Q: What does the source list for `Cc1ccc(O)c([C@H](CCN(C(C)C)C(C)C)c2ccccc2)c1` [TOLTERODINE, Tolterodine]?
A: Beat Escape incidence [1, 12]: 0%; EADs incidence [1, 12]: 0%; Refractoriness Escape incidence [1, 12]: 0%; Beat Escape incidence [1, 13]: 0%; EADs incidence [1, 13]: 0%; Refractoriness Escape incidence [1, 13]: 0%; EAD induction [1]: did not induce EAD; AMAX [1, 14]: 110 mV and 113 mV and 107 mV and 112 mV; APD30 [1, 14]: 186 ms and 190 ms and 192 ms and 195 ms; APD50 [1, 14]: 248 ms and 256 ms and 279 ms and 294 ms; APD90 [1, 14]: 320 ms and 331 ms and 378 ms and 411 ms; Alternans [1, 14]: 0.39 and 0.41 and 0.53 and 0.63; Beat Escape [1, 14]: 0; EADs [1, 14]: 0; ERP [1, 14]: 0.46 and 0.47 and 0.53 and 0.55; Max Dispersion [1, 14]: 2.33 and 1.97 and 2.80 and 2.90; Refractoriness Escape [1, 14]: 0; STV [1, 14]: 0.32 and 0.28 and 0.38 and 0.40; Triangulation [1, 14]: 134 and 141 and 186 and 215; AMAX [1, 15]: 107 mV and 113 mV and 106 mV; APD30 [1, 15]: 131 ms and 143 ms and 136 ms and 134 ms; APD50 [1, 15]: 184 ms and 197 ms and 203 ms and 210 ms; APD90 [1, 15]: 254 ms and 268 ms and 299 ms and 327 ms; Beat Escape [1, 15]: 0; EADs [1, 15]: 0; ERP [1, 15]: 0.49 and 0.48 and 0.54 and 0.56; Max Dispersion [1, 15]: 2.38 and 2.93 and 4.08 and 4.05; Refractoriness Escape [1, 15]: 0; Triangulation [1, 15]: 123 and 126 and 163 and 193; effect on amplitude of AP ([1]; up to the highest testing concentration, 1 μM): negligible effects; Free ETPC [2]: 0.0004 µM
